Data reported in patent US5824687A, “Pyridinium salts and their use for the control of helicobacter bacteria” (BYK Gulden Lomberg Chemische Fabrik GmbH, priority 1993, dated 1998).

System: Helicobacter pylori
Assay: Activity against Helicobacter pylori (MIC, Columbia agar (Oxoid), growth period of 4 days)
Format: cell-based
Settings: 96 h, methodology of Tomoyuki Iwahi et al.
From the text: The compounds according to the invention were investigated with respect to their activity against Helicobacter pylori following the methodology described by Tomoyuki Iwahi et al. (Antimicrobial Agents and Chemotherapy,1991, 490-496) using Columbia agar (Oxoid) and with a growth period of 4 days.

Row | MIC | Compound
1 | ≤ 10 µg/mL | COC(=O)c1ccc(Cn2c(C)c(C)[n+]3cccc(OCc4ccccc4)c23)cc1 [Compound 4, 8-Benzyloxy-1-(4-methoxycarbonylbenzyl)-2,3-dimethylimidazo[1,2-a]pyridinium bromide]
2 | ≤ 10 µg/mL | Cc1c(C)[n+]2cccc(OCc3ccccc3)c2n1Cc1ccc2ccccc2c1 [Compound 12, 8-Benzyloxy-2,3-dimethyl-1-(2-naphthylmethyl)imidazo[1,2-a]pyridinium bromide]
3 | ≤ 10 µg/mL | Cc1c(C)[n+]2cccc(OCc3ccccc3)c2n1Cc1cccc(C#N)c1 [Compound 13, 8-Benzyloxy-1-(3-cyanobenzyl)-2,3-dimethylimidazo[1,2-a]pyridinium bromide]
4 | ≤ 10 µg/mL | Cc1c(C)[n+]2cccc(OCc3ccccc3)c2n1Cc1ccc(F)cc1 [Compound 3, 8-Benzyloxy-1-(4-fluorobenzyl)-2,3-dimethylimidazo-[1,2-a]pyridinium bromide]

The next lines start with the compound.

Row | Compound | MIC
5 | Cc1c(C)[n+]2cccc(OCc3ccccc3)c2n1CCc1ccccc1 [Compound 5, 8-Benzyloxy-2,3-dimethyl-1-phenethylimidazo[1,2-a]pyridinium bromide] | ≤ 10 µg/mL
6 | Cc1c(C)[n+]2cccc(OCc3ccccc3)c2n1Cc1ccc(-c2ccccc2)cc1 [Compound 18, 8-Benzyloxy-1-(4-biphenylmethyl)-2,3-dimethylimidazo[1,2-a]pyridinium bromide] | ≤ 10 µg/mL
7 | C#CCc1c(C)n(CCc2ccccc2)c2c(OCc3ccccc3)ccc[n+]12 [Compound 7, 8-Benzyloxy-2-methyl-1-phenethyl-3-(2-propynyl)imidazo[1,2-a]pyridiniumbromide] | ≤ 10 µg/mL
8 | Cc1c(C)[n+]2cccc(OCc3ccccc3)c2n1Cc1cc(F)cc(F)c1 [Compound 10, 8-Benzyloxy-1-(3,5-difluorobenzyl)-2,3-dimethylimidazo[1,2-a]pyridiniumbromide] | ≤ 10 µg/mL
9 | Cc1c(CC#N)[n+]2cccc(OCc3ccccc3)c2n1CCc1ccccc1 [Compound 6, 8-Benzyloxy-3-cyanomethyl-2-methyl-1-phenethylimidazo[1,2-a]pyridinium bromide] | ≤ 10 µg/mL
